Laboratory results reported in US8946237B2, “Pyrazolo[1,5-A]pyrimidines as mark inhibitors” (Merck Sharp & Dohme Corp., priority 2010, dated 2015).

Key:
MARK3 = biological target: T1, MARK3 (Homo sapiens, UniProt P27448); assay: MARK 3 Assay (HTRF, Cdc25C biotinylated peptide substrate); format: biochemical; settings: 10 μM ATP, 10 nM recombinant MARK3 enzyme
T1 construct: purchased University of Dundee
Procedure: MARK3 activity was assayed in vitro using a Cdc25C biotinylated peptide substrate (Cell Signalling Technologies). The phosphopeptide product was quantitated using a Homogenous Time-Resolved Fluorescence (HTRF) assay system (Park et al., 1999, Anal. Biochem. 269:94-104). The reaction mixture contained 50 mM HEPES/Tris-HCl, pH 7.4; 10 mM NaCl, 5 mM MgCl2, 0.2 mM NaVO4, 5 mM β-glycerol phosphate, 0.1% Tween-20, 2 mM dithiothreitol, 0.1% BSA, 10 μM ATP, 1 μM peptide substrate, and 10 nM recombinant MARK3 enzyme (University of Dundee) in a final volume of 12 μL. The buffer additionally contained protease inhibitor cocktail (Roche EDTA-free, 1 tab per 50 ml). The kinase reaction was incubated for 2 hours at 25° C., and then terminated with 3 μl Stop/Detection Buffer (50 mM HEPES, pH 7.0, 16.6 mM EDTA, 0.5M KF, 0.1% Tween-20, 0.1% BSA, 2 μg/ml SLX^ent 665 (CISBIO), and 2 μg/mL Eu^3+ cryptate label antibody (CISBIO)). The reaction was allowed to equilibrate overnight at 0° C., and relative fluorescent units were read on an HTRF enabled plate reader (e.g. TECAN GENios Pro).
Inhibitor compounds were assayed in the reaction described above to determine compound IC50s. Aliquots of compound dissolved in DMSO were added to the reaction wells in a third-log dilution series covering a range of 1 nM to 10 μM. Relative phospho substrate formation, read as HTRF fluorescence units, was measured over the range of compound concentrations and a titration curve generated.

[1] = Mean Arterial Pressure in anesthetized dogs; format: in vivo
Description: The compounds of Formula I disclosed herein are also useful as blood pressure lowering agents and thus useful for the treating hypertension. Arterial hypertension has been identified as a strong causal factor in cardiovascular disease. An embodiment of the invention encompasses a method for treating or preventing cardiovascular disease comprising administering to a patient in need thereof a compound of Formula I, either as a single agent or in combination with other standard of care agents. It is postulated that compounds of the invention lower blood pressure by interfering with binding of tau and other microtubule associated proteins (MAP) to microtubules. Inhibiting the depolymerization of tubulin is the proposed cause of vasorelaxation leading to blood pressure lowering. […] Example 4 disclosed herein lowered Mean Arterial Pressure by 25% when it was dosed at 5 mg/kg cumulatively over the course of 90 minutes in anesthetized dogs. Example 9 disclosed herein lowered Mean Arterial Pressure by 89% when it was dosed at 10 mg/kg cumulatively over the course of 90 minutes in anesthetized dogs.

T1 sequence (P27448 whole entry, species assumed): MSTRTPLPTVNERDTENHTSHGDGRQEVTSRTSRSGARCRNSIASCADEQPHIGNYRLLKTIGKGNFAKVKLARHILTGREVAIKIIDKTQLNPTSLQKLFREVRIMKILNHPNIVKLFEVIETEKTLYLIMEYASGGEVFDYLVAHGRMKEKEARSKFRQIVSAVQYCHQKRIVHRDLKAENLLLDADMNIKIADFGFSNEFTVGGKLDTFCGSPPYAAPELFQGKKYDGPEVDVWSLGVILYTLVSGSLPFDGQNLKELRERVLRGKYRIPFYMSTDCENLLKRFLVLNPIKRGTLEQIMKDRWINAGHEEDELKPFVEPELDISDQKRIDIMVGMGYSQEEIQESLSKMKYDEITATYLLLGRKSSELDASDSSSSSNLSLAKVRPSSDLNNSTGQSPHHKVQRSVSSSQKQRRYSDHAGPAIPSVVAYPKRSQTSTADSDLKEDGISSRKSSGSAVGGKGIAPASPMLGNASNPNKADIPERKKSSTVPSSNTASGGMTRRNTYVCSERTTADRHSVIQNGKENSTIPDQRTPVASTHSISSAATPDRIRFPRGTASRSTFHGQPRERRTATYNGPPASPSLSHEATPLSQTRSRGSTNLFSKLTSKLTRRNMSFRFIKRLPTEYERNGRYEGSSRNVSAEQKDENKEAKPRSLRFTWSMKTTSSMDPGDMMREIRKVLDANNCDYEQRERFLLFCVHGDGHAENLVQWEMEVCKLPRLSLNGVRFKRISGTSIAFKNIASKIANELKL

Structure (SMILES) | IC50 (MARK3) | lowered Mean Arterial Pressure ([1]; 10 mg/kg cumulatively over the course of 90 minutes) | lowered Mean Arterial Pressure ([1]; 5 mg/kg cumulatively over the course of 90 minutes)
Cc1sc(C(=O)N[C@@H]2CCCC[C@@H]2N)cc1-c1cnn2cc(-c3cnn(C)c3)cnc12 [reference compound] | 1 nM |  | 
Cc1sc(C(=O)N[C@@H]2[C@H](N)CCCC2(F)F)cc1-c1cnn2cc(OC(F)F)cnc12 [Example 9, N-[(1R,6R)-6-Amino-2,2-difluorocyclohexyl]-4-[6-(difluoromethoxy)pyrazolo[1,5-a]pyrimidin-3-yl]-5-methylthiophene-2-carboxamide] | 3 nM | 89% | 
CCc1sc(C(=O)N[C@@H]2[C@@H](N)CCCC2(F)F)cc1-c1cnn2cc(Cl)cnc12 [Example 4, N-[(1R,6S)-6-Amino-2,2-difluorocyclohexyl]-4-(6-chloropyrazolo[1,5-a]pyrimidin-3-yl)-5-ethylthiophene-2-carboxamide] | 27 nM |  | 25%

More lines, main results first:

IC50 (MARK3) | Structure (SMILES) | lowered Mean Arterial Pressure ([1]; 10 mg/kg cumulatively over the course of 90 minutes) | lowered Mean Arterial Pressure ([1]; 5 mg/kg cumulatively over the course of 90 minutes)
73 nM | CCc1sc(C(=O)N[C@@H]2[C@@H](N)CCCC2(F)F)cc1-c1cnn2cc(C(F)(F)F)cnc12 [Example 6, N-[(1R,6S)-6-Amino-2,2-difluorocyclohexyl]-5-ethyl-4-[6-(trifluoromethyl)pyrazolo[1,5-a]pyrimindin-3-yl]thiophene-2-carboxamide] |  | 
2 nM | CCOc1cnc2c(-c3cc(C(=O)N[C@@H]4[C@H](N)CCCC4(F)F)sc3CC)cnn2c1 [Example 15, N-[(1R,6R)-6-amino-2,2-difluorocyclohexyl]-4-(6-ethoxypyrazolo[1,5-a]pyrimidin-3-yl)-5-ethylthiophene-2-carboxamide] |  | 
5 nM | Cc1sc(C(=O)N[C@@H]2[C@@H](N)CCCC2(F)F)cc1-c1cnn2cc(OC(F)F)cnc12 [Example 10, N-[(1R,6S)-6-amino-2,2-difluorocyclohexyl]-4-[6-(difluoromethoxy)pyrazolo[1,5-a]pyrimidin-3-yl]-5-methylthiophene-2-carboxamide] |  | 
